{
  "source": "patent US8410161B2",
  "about": "“Thioxanthone ring system derivatives” (National Defense Medical Center, priority 2010, dated 2013)",
  "key": {"PC-3": {"tested_on": "PC-3", "test": "NCI in vitro DTP human cell line screen, PC-3", "format": "cell-based", "conditions": "Prostate Cancer, 1.00E−5 Molar", "description": "(§1) Then, a cell toxicity assay of the cancer lines made by National Cancer Institute will be discussed as follows. The cell toxicity assay is performed by choosing ten compounds (existing certification numbers) from the 59 compounds disclosed in the present invention first."}, "MDA-MB-435": {"tested_on": "MDA-MB-435", "test": "NCI in vitro DTP human cell line screen, MDA-MB-435", "format": "cell-based", "conditions": "Melanoma, 1.00E−5 Molar", "description": "as §1"}, "K562": {"tested_on": "K562", "test": "NCI in vitro DTP human cell line screen, K562", "format": "cell-based", "conditions": "Leukemia, 1.00E−5 Molar", "description": "as §1"}, "OVCAR-8": {"tested_on": "OVCAR-8", "test": "NCI in vitro DTP human cell line screen, OVCAR-8", "format": "cell-based", "conditions": "Ovarian Cancer, 1.00E−5 Molar", "description": "as §1"}, "IGROV1": {"tested_on": "IGROV1", "test": "NCI in vitro DTP human cell line screen, IGROV1", "format": "cell-based", "conditions": "Ovarian Cancer, 1.00E−5 Molar", "description": "as §1"}, "OVCAR-5": {"tested_on": "OVCAR-5", "test": "NCI in vitro DTP human cell line screen, OVCAR-5", "format": "cell-based", "conditions": "Ovarian Cancer, 1.00E−5 Molar", "description": "as §1"}, "HCT-15": {"tested_on": "HCT-15", "test": "NCI in vitro DTP human cell line screen, HCT-15", "format": "cell-based", "conditions": "Colon Cancer, 1.00E−5 Molar", "description": "as §1"}, "OVCAR-4": {"tested_on": "OVCAR-4", "test": "NCI in vitro DTP human cell line screen, OVCAR-4", "format": "cell-based", "conditions": "Ovarian Cancer, 1.00E−5 Molar", "description": "as §1"}, "NCI-H226": {"tested_on": "NCI-H226", "test": "NCI in vitro DTP human cell line screen, NCI-H226", "format": "cell-based", "conditions": "Non-Small Cell Lung Cancer, 1.00E−5 Molar", "description": "as §1"}, "NCI-H522": {"tested_on": "NCI-H522", "test": "NCI in vitro DTP human cell line screen, NCI-H522", "format": "cell-based", "conditions": "Non-Small Cell Lung Cancer, 1.00E−5 Molar", "description": "as §1"}, "RPMI-8226": {"tested_on": "RPMI-8226", "test": "NCI in vitro DTP human cell line screen, RPMI-8226", "format": "cell-based", "conditions": "Leukemia, 1.00E−5 Molar", "description": "as §1"}, "MDA-MB-231/ATCC": {"tested_on": "MDA-MB-231/ATCC", "test": "NCI in vitro DTP human cell line screen, MDA-MB-231/ATCC", "format": "cell-based", "conditions": "Breast Cancer, 1.00E−5 Molar", "description": "as §1"}, "SNB-19": {"tested_on": "SNB-19", "test": "NCI in vitro DTP human cell line screen, SNB-19", "format": "cell-based", "conditions": "CNS Cancer, 1.00E−5 Molar", "description": "as §1"}, "M14": {"tested_on": "M14", "test": "NCI in vitro DTP human cell line screen, M14", "format": "cell-based", "conditions": "Melanoma, 1.00E−5 Molar", "description": "as §1"}, "SF-539": {"tested_on": "SF-539", "test": "NCI in vitro DTP human cell line screen, SF-539", "format": "cell-based", "conditions": "CNS Cancer, 1.00E−5 Molar", "description": "as §1"}, "60 cancer lines": {"tested_on": "60 cancer lines", "test": "NCI cell toxicity assay of 60 cancer lines, whole panel summary", "format": "cell-based, human", "conditions": "mean over all cell lines; 1.00E−5 Molar", "description": "as §1"}, "SK-MEL-5": {"tested_on": "SK-MEL-5", "test": "NCI in vitro DTP human cell line screen, SK-MEL-5", "format": "cell-based", "conditions": "Melanoma, 1.00E−5 Molar", "description": "as §1"}, "NCI-H460": {"tested_on": "NCI-H460", "test": "NCI in vitro DTP human cell line screen, NCI-H460", "format": "cell-based", "conditions": "Non-Small Cell Lung Cancer, 1.00E−5 Molar", "description": "as §1"}, "786-0": {"tested_on": "786-0", "test": "NCI in vitro DTP human cell line screen, 786-0", "format": "cell-based", "conditions": "Renal Cancer, 1.00E−5 Molar", "description": "as §1"}, "ACHN": {"tested_on": "ACHN", "test": "NCI in vitro DTP human cell line screen, ACHN", "format": "cell-based", "conditions": "Renal Cancer, 1.00E−5 Molar", "description": "as §1"}, "EKVX": {"tested_on": "EKVX", "test": "NCI in vitro DTP human cell line screen, EKVX", "format": "cell-based", "conditions": "Non-Small Cell Lung Cancer, 1.00E−5 Molar", "description": "as §1"}, "SNB-75": {"tested_on": "SNB-75", "test": "NCI in vitro DTP human cell line screen, SNB-75", "format": "cell-based", "conditions": "CNS Cancer, 1.00E−5 Molar", "description": "as §1"}, "SR": {"tested_on": "SR", "test": "NCI in vitro DTP human cell line screen, SR", "format": "cell-based", "conditions": "Leukemia, 1.00E−5 Molar", "description": "as §1"}, "OVCAR-3": {"tested_on": "OVCAR-3", "test": "NCI in vitro DTP human cell line screen, OVCAR-3", "format": "cell-based", "conditions": "Ovarian Cancer, 1.00E−5 Molar", "description": "as §1"}, "SK-MEL-2": {"tested_on": "SK-MEL-2", "test": "NCI in vitro DTP human cell line screen, SK-MEL-2", "format": "cell-based", "conditions": "Melanoma, 1.00E−5 Molar", "description": "as §1"}, "UACC-257": {"tested_on": "UACC-257", "test": "NCI in vitro DTP human cell line screen, UACC-257", "format": "cell-based", "conditions": "Melanoma, 1.00E−5 Molar", "description": "as §1"}, "SK-MEL-28": {"tested_on": "SK-MEL-28", "test": "NCI in vitro DTP human cell line screen, SK-MEL-28", "format": "cell-based", "conditions": "Melanoma, 1.00E−5 Molar", "description": "as §1"}, "RXF 393": {"tested_on": "RXF 393", "test": "NCI in vitro DTP human cell line screen, RXF 393", "format": "cell-based", "conditions": "Renal Cancer, 1.00E−5 Molar", "description": "as §1"}, "DU145": {"tested_on": "DU145", "test": "NCI in vitro DTP human cell line screen, DU145", "format": "cell-based", "conditions": "Prostate Cancer, 1.00E−5 Molar", "description": "as §1"}, "A3 cell lines": {"tested_on": "A3 cell lines", "test": "MTT assay, A3 cell lines (lung cancer stem cell)", "format": "cell-based", "excerpt": "Please to FIG. 4B, various cell viabilities of the A3 cell lines can be obtained through the MTT assay and illustrated in FIG. 4B while the compounds No. 1˜30 are used to treat A3 cell lines, wherein A3 cell lines are lung cancer stem cell."}},
  "data": [
    {"compound": "Cc1cc(C)cc(Sc2ccc3c(=O)c4ccccc4sc3c2Cl)c1", "note": "[No. 14, 4-Chloro-3-(3,5-dimethylphenylthio)-9H-thioxanthen-9-one]", "values": [
      {"measurement": "Growth Percent", "setting": "PC-3", "value": 97.92, "unit": "%"},
      {"measurement": "Growth Percent", "setting": "MDA-MB-435", "value": 99.38, "unit": "%"},
      {"measurement": "Growth Percent", "setting": "K562", "value": 100.94, "unit": "%"},
      {"measurement": "Growth Percent", "setting": "OVCAR-8", "value": 97.95, "unit": "%"},
      {"measurement": "Growth Percent", "setting": "IGROV1", "value": 100.06, "unit": "%"},
      {"measurement": "Growth Percent", "setting": "OVCAR-5", "value": 98.39, "unit": "%"},
      {"measurement": "Growth Percent", "setting": "HCT-15", "value": 97.09, "unit": "%"},
      {"measurement": "Growth Percent", "setting": "OVCAR-4", "value": 101.64, "unit": "%"},
      {"measurement": "Growth Percent", "setting": "NCI-H226", "value": 97.38, "unit": "%"},
      {"measurement": "Growth Percent", "setting": "NCI-H522", "value": 91.47, "unit": "%"},
      {"measurement": "Growth Percent", "setting": "RPMI-8226", "value": 101.54, "unit": "%"},
      {"measurement": "Growth Percent", "setting": "MDA-MB-231/ATCC", "value": 106.25, "unit": "%"},
      {"measurement": "Growth Percent", "setting": "SNB-19", "value": 108.53, "unit": "%"},
      {"measurement": "Growth Percent", "setting": "M14", "value": 107.60, "unit": "%"},
      {"measurement": "Growth Percent", "setting": "SF-539", "value": 105.19, "unit": "%"},
      {"measurement": "Growth Percent, Mean", "setting": "60 cancer lines", "value": 101.73, "unit": "%"},
      {"measurement": "Growth Percent", "setting": "SK-MEL-5", "value": 104.23, "unit": "%"},
      {"measurement": "Growth Percent", "setting": "NCI-H460", "value": 105.72, "unit": "%"},
      {"measurement": "Growth Percent", "setting": "786-0", "value": 110.62, "unit": "%"},
      {"measurement": "Growth Percent", "setting": "ACHN", "value": 98.35, "unit": "%"},
      {"measurement": "Growth Percent", "setting": "EKVX", "value": 96.66, "unit": "%"},
      {"measurement": "Growth Percent", "setting": "SNB-75", "value": 84.85, "unit": "%"},
      {"measurement": "Growth Percent", "setting": "SR", "value": 86.99, "unit": "%"},
      {"measurement": "Growth Percent", "setting": "OVCAR-3", "value": 121.13, "unit": "%"},
      {"measurement": "Growth Percent", "setting": "SK-MEL-2", "value": 100.30, "unit": "%"},
      {"measurement": "Growth Percent", "setting": "UACC-257", "value": 89.26, "unit": "%"},
      {"measurement": "Growth Percent", "setting": "SK-MEL-28", "value": 117.96, "unit": "%"},
      {"measurement": "Growth Percent", "setting": "RXF 393", "value": 114.27, "unit": "%"},
      {"measurement": "Growth Percent", "setting": "DU145", "value": 118.42, "unit": "%"},
      {"measurement": "cell viabilities of A3 cell lines (MTT assay)", "setting": "A3 cell lines", "value": "113 ± 0.50", "unit": "%"}
    ]}
  ]
}
